What was measured:
Assay in all cases: relative viability (nuclei count vs DMSO), 5 days (fraction); higher = more cells survive
[1] = compound: C1COCCN1C2=NC(=NC3=C2OC4=C3C=CC=N4)C5=CC(=CC=C5)NC(=O)C6=CN=C(C=C6)N + CCNC(=O)c1noc(-c2cc(C(C)C)c(O)cc2O)c1-c1ccc(CN2CCOCC2)cc1 [Luminespib] (partner 0.01 µM)
Method in brief: (§1)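 Each reported value is a median over duplicate plates. It expresses relative viability: treated-well nuclei count divided by vehicle-well nuclei count. Lung cancer cell lines in 1536-well plates were dosed by pin tool a day after seeding, alone with one drug or with a fixed anchor-drug dose plus five library-drug doses (not always all listed) in √10 steps, and nuclei were counted after 5 days.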

[2] = compound: C1COCCN1C2=NC(=NC3=C2OC4=C3C=CC=N4)C5=CC(=CC=C5)NC(=O)C6=CN=C(C=C6)N + C[C@@H](Oc1cc(-c2cnn(C3CCNCC3)c2)cnc1N)c1c(Cl)ccc(F)c1Cl [Crizotinib] (partner 1 µM)
Method in brief: as §1

[3] = compound: C1COCCN1C2=NC(=NC3=C2OC4=C3C=CC=N4)C5=CC(=CC=C5)NC(=O)C6=CN=C(C=C6)N + NC(=O)Nc1cc(-c2cccc(F)c2)sc1C(=O)N[C@H]1CCCNC1 [AZD7762] (partner 0.2 µM)
Method in brief: as §1

SGI-1776 + Lapatinib = compound: CN1CCC(CNc2ccc3ncc(-c4cccc(OC(F)(F)F)c4)n3n2)CC1 [SGI-1776] + CS(=O)(=O)CCNCc1ccc(-c2ccc3ncnc(Nc4ccc(OCc5cccc(F)c5)c(Cl)c4)c3c2)o1 [Lapatinib] (partner 2 µM)
Method in brief: as §1

| Cell Line | relative viability ([1]; first compound 0.02 µM) | relative viability ([1]; first compound 0.06325 µM) | relative viability ([1]; first compound 0.2 µM) | relative viability ([1]; first compound 0.6325 µM) | relative viability ([1]; first compound 2 µM) | relative viability ([2]; first compound 0.02 µM) | relative viability ([2]; first compound 0.06325 µM) | relative viability ([2]; first compound 0.2 µM) | relative viability ([2]; first compound 0.6325 µM) | relative viability ([2]; first compound 2 µM) | relative viability ([3]; first compound 0.02 µM) | relative viability ([3]; first compound 0.06325 µM) | relative viability ([3]; first compound 0.2 µM) | relative viability ([3]; first compound 0.6325 µM) | relative viability ([3]; first compound 2 µM) | relative viability (SGI-1776 + Lapatinib; first compound 0.08 µM) | relative viability (SGI-1776 + Lapatinib; first compound 0.8 µM) | relative viability (SGI-1776 + Lapatinib; first compound 2.53 µM) | relative viability (SGI-1776 + Lapatinib; first compound 8 µM) |
| --- | --- | --- | --- | --- | --- | --- | --- | --- | --- | --- | --- | --- | --- | --- | --- | --- | --- | --- | --- |
| NCI-H1437 | 0.859 | 1.21 | 1.04 | 1.08 | 0.537 | 0.95 | 1.11 | 0.827 | 0.964 | 0.401 | 1.1 | 1.07 | 1.12 | 1.13 | 0.91 | 0.81 | 0.918 | 0.806 | 0.664 |
| EKVX | 0.885 | 0.859 | 0.723 | 0.755 | 0.664 | 1.06 | 0.985 | 1.03 | 1.03 | 0.62 | 0.9 | 0.869 | 0.747 | 0.709 | 0.578 | 0.225 | 0.205 | 0.209 | 0.166 |
| NCI-H460 | 0.0333 | 0.035 | 0.0284 | 0.0243 | 0.0278 | 1.16 | 1.03 | 0.913 | 0.927 | 0.144 | 0.609 | 0.784 | 0.587 | 0.653 | 0.359 | 1.16 | 0.978 | 1.13 | 0.863 |
| NCI-H1993 | 0.906 | 0.776 | 0.707 | 0.802 | 0.689 | 0.821 | 0.856 | 0.805 | 0.899 | 0.789 | 1.02 | 0.668 | 0.747 | 0.759 | 0.443 | 0.839 | 0.958 | 0.841 | 0.636 |
| HCC-78 |  |  |  |  |  | 0.352 | 0.327 | 0.329 | 0.282 | 0.261 | 0.628 | 0.642 | 0.576 | 0.685 | 0.589 | 0.848 | 0.7 | 0.783 | 0.698 |
| NCI-H2087 | 0.146 | 0.16 | 0.137 | 0.204 | 0.142 | 0.979 | 0.936 | 0.925 | 0.892 | 0.531 | 1.35 | 1.44 | 1.32 | 1.17 | 0.647 | 1.1 | 1.03 | 1.09 | 1.13 |
| H3255 | 0.79 | 0.851 | 0.689 | 1.03 | 0.9 | 0.729 | 0.805 | 0.758 | 0.844 | 0.586 | 0.923 | 0.959 | 0.856 | 0.859 | 0.7 | 0.285 | 0.33 | 0.259 | 0.198 |
| NCI-H2126 | 0.892 | 0.894 | 0.871 | 0.845 | 0.566 | 1.04 | 1.09 | 1.06 | 1 | 0.645 | 0.989 | 1.03 | 1.03 | 0.989 | 0.736 | 0.72 | 0.742 | 0.772 | 0.71 |

From the supplement of paper PMC10307832
